Measured values published in patent publication US20050020576A1, “Kappa agonist compounds and pharmaceutical formulations thereof” (priority 1996, published 2005).
Values joined by “and” are separate entries in the source; they are usually repeats but may differ in a detail not shown here. Identical values can stand only once. Counter-ions that a name gives are not always drawn.

Legend:
[1] = molecular target: T1, cloned human kappa receptor (Homo sapiens, UniProt P41145); assay: biochemical; assay type: binding; parameters: (3H)-Diprenorphin, % / k [3H] Diprenorphin, %: dose or concentration left out as unconfirmed; settings: for inhibition at 1 µM: read-out: 3H-Diprenorphin, % @ 1 uM
[2] = molecular target: T1, cloned human kappa receptor; assay: [3H]U69593 (agonist) binding to the cloned human kappa receptor
[3] = system: formalin-induced flinching; assay: animal or person; assay type: in vivo, male Sprague-Dawley rats; settings: rat, in vivo

T1 sequence (P41145 whole entry): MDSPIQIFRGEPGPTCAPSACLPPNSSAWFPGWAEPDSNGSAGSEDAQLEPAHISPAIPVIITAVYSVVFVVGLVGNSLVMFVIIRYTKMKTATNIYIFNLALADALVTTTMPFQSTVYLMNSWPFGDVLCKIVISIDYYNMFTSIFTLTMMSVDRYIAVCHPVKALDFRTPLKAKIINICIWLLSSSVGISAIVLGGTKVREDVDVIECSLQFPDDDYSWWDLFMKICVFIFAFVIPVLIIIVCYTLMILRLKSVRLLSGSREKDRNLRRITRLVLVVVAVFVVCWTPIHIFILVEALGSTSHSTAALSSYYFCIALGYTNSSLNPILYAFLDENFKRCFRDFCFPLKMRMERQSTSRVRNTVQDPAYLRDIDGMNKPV

SMILES | Ki ([2]; Ki, nM 3H-U-69,593) | Late Phase Formalin, % @ 300; i.paw [3] | Ki ([1]; Ki, nM 3H-Diprenorphin) | other results
Cl.O=CN1CCN(C(=O)Cc2ccc(Cl)c(Cl)c2)[C@H](CN2CCCC2)C1 [(R-3j), (R)-4-[(3,4-Dichlorophenyl)acetyl]-3-[(1-pyrrolidinyl)methyl]-1-piperazinecarboxaldehyde hydrochloride] | 0.4 nM | 65% @ 300 | – | inhibition at 1 µM [1]: 96%; melting point: 126 °C (dec.)
Cl.Cl.O=C(O)CN1CCN(C(=O)Cc2ccc(Cl)c(Cl)c2)[C@H](CN2CCCC2)C1 [(R-3c), (R)-4-[(3,4-dichlorophenyl)acetyl]-3-[(1-pyrrolidinyl)methyl]-1-piperazineacetic acid dihydrochloride] | 23 nM and 21 nM | 26% @ 300 | – | inhibition at 1 µM [1]: 62%; melting point: 190 °C (dec.)
CC(=O)N1CCN(C(=O)Cc2ccc(S(C)(=O)=O)cc2)C(CN2CCCC2)C1 (racemic) [(R,S-10a), hydrochloride] | 2.3 nM | 6% @ 300 | – | inhibition at 1 µM [1]: 27%
COC(=O)N1CCN(C(=O)Cc2ccccc2N)C(CN2CCCC2)C1 (racemic) [(R,S-9f), (R,S)-Methyl 4-[(2-aminophenyl)acetyl]-3-[(1-pyrrolidinyl)-methyl]-1-piperazine-carboxylate dihydrochloride] | 0.67 nM and 0.41 nM | 97% @ 300 | 4.6 nM and 3.2 nM | –
COC(=O)N1CCN(C(=O)Cc2ccc(Cl)c(Cl)c2)C(CN2CCCC2)C1 (centres unmarked) [GR 89696, reference compound] | 1.6 nM and 1.5 nM | – | 0.095 nM and 0.1 nM | Late Phase Formalin A50 (mg); i.paw [3]: 0.35(0.20-0.62) mg
O=C(Cc1ccc(Cl)c(Cl)c1)N1CCN(C(=O)C(F)(F)F)C[C@H]1CN1CCCC1 [(R-3h), (R)-4-Trifluoroacetyl-1-(3,4-dichlorophenyl)acetyl]-2-[(1-pyrrolidinyl)methyl]-piperazine hydrochloride] | 0.26 nM and 0.16 nM | 94% @ 300 | 6.9 nM and 1.8 nM | –
COC(=O)N1CCN(C(=O)Cc2ccccc2OC)C(CN2CCCC2)C1 (racemic) [(R,S-9e), hydrochloride] | 0.46 nM and 1.3 nM | 98% @ 300 | 7.3 nM | –
CC(=O)N1CCN(C(=O)Cc2ccc(Cl)c(Cl)c2)[C@H](CN2CCCC2)C1.Cl [(R-3f), (R)-4-Acetyl-1-[(3,4-dichlorophenyl)acetyl]-2-[(1-pyrrolidinyl)methyl]-piperazine hydrochloride] | 0.11 nM and 0.14 nM | 95% @ 300 | 4.2 nM and 1.4 nM | melting point: 153 to 155 °C
CC(C)(C)CC(=O)N1CCN(C(=O)Cc2ccc(Cl)c(Cl)c2)[C@H](CN2CCCC2)C1 [(R-3b), (R)-4-t-Butyl-acetyl-1-[(3,4-dichlorophenyl)acetyl]-2-[(1-pyrrolidinyl)methyl]-piperazine] | – | – | – | 3H-Diprenorphin, % @ 1 uM [1]: 30% @ 1 uM; 3H-U-69,593, % @ 1 uM [2]: 75% @ 1 uM; Late Phase Formalin column, % I @ 1 μM [3]: 75% I @ 1 μM
COC(=O)N1CCN(C(=O)Cc2ccc(C(F)(F)F)cc2)C(CN2CCCC2)C1 (racemic) [(R,S-9b), (R,S)-Methyl 4-[(4-trifluoromethylphenyl)acetyl]-3-[(1-pyrrolidinyl)-methyl]-1-piperazinecarboxylate hydrochloride] | 0.076 nM and 0.13 nM | 98% @ 300 | 0.49 nM | –
COC(=O)N1CCN(C(=O)Cc2ccccc2[N+](=O)[O-])C(CN2CCCC2)C1 (racemic) [(R,S-9d), (R,S)-Methyl 4-[(2-nitrophenyl)acetyl]-3-[(1-Pyrrolidinyl)-methyl]-1-piperazine-carboxylate hydrochloride] | 0.74 nM and 0.73 nM | 93% @ 300 | 37 nM | –
CS(=O)(=O)N1CCN(C(=O)Cc2ccc(C(F)(F)F)cc2)C(CN2CCCC2)C1 (racemic) [(R,S-8d), (R,S)-4-Methanesulfonyl-1-[(4-trifluoromethylphenyl)acetyl]-2-[(1-pyrrolidinyl)-methyl]piperazine hydrochloride] | 1.3 nM and 1.9 nM | 97% @ 300 | 16 nM and 17 nM | –
O=C(Cc1ccc(C(F)(F)F)cc1)N1CCN(Cc2ccccc2)CC1CN1CCCC1 (centres unmarked) [(R.S-11)] | 0.39 nM and 0.57 nM | 92% @ 300 | 2.2 nM and 2.4 nM | –
Cc1ccc(S(=O)(=O)N2CCN(C(=O)Cc3ccc(Cl)c(Cl)c3)[C@H](CN3CCCC3)C2)cc1 [(R-3l), (R)-4-(4-Methyphenylsulfonyl)-1-[(3,4-dichlorophenyl)acetyl]-2-[(1-Pyrrolidinyl)methyl]-piperazine hydrochloride] | 6.2 nM | 24% @ 300 | – | Ki ([1]; Table I, read-out: Ki, nM 3H-Diprenorphin): 120 nM
CS(=O)(=O)N1CCN(C(=O)Cc2ccc(Cl)c(Cl)c2)[C@H](CN2CCCC2)C1.Cl [(R-3a), (R)-4-Methanesulfonyl-1-[(3,4-dichlorophenyl)acetyl]-2-[(1-pyrrolidinyl)methyl]-piperazine hydrochloride] | 0.19 nM and 0.5 nM | – | 0.2 nM and 1.3 nM | Late Phase Formalin A50 (mg); i.paw [3]: 14 (5.6-29) mg; melting point: 130 to 132 °C
Cl.Cl.NC(CC(=O)O)C(=O)N1CCN(C(=O)Cc2ccc(Cl)c(Cl)c2)[C@H](CN2CCCC2)C1 (stereo partly drawn) [(R-3e), (R)-4-Aspartic acid-1-[(3,4-dichlorophenyl)acetyl]-2-[(1-pyrrolidinyl)methyl]-piperazine dihydrochloride] | – | 22% A @ 300 | – | 3H-Diprenorphin, % @ 1 uM [1]: 39% @ 1 uM; Ki ([2]; dihydrochloride, read-out: Ki, nM 3H-U-69,593): 37 nM and 28 nM

SMILES | Ki ([2]; Ki, nM 3H-U-69,593) | Late Phase Formalin, % @ 300; i.paw [3] | Ki ([1]; Ki, nM 3H-Diprenorphin) | other results
COC(=O)N1CCN(C(=O)Cc2ccc(S(C)(=O)=O)cc2)C(CN2CCCC2)C1 (racemic) [(R,S-9a), (R,S)-Methyl 4-[(4-methylsulfonylphenyl)acetyl]-3-[(1-pyrrolidinyl)-methyl]-1-piperazinecarboxylate hydrochloride] | 0.37 nM and 0.42 nM | 46% @ 300 | 11 nM | –
COC(=O)N1CCN(C(=O)Cc2c[nH]c3ccccc23)C(CN2CCCC2)C1 (racemic) [(R,S-9c), (R,S)-Methyl 4-[(3-indolyl)acetyl]-3-[(1-pyrrolidinyl)-methyl]-1-piperazine-carboxylate hydrochloride] | 0.27 nM and 0.4 nM | 95% @ 300 | 3 nM | –
CS(=O)(=O)N1CCN(C(=O)Cc2ccc(Cl)c(Cl)c2)C(CN2CCCC2)C1 (racemic) [(R,S-8a), (R,S)-4-Methanesulfonyl-1-[(3,4-dichlorophenyl)acetyl]-2-[(1-pyrrolidinyl)methyl]-piperazine hydrochloride] | 0.37 nM and 0.65 nM | 96% @ 300 | 5.4 nM and 4 nM | –
Cl.NC(=O)N1CCN(C(=O)Cc2ccc(Cl)c(Cl)c2)[C@H](CN2CCCC2)C1 [(R-3i), (R)-4-[(3,4-Dichlorophenyl)acetyl]-3-[(1-pyrrolidinyl)methyl]-1-piperazinecarboxamide hydrochloride] | 2.9 nM | 68% @ 300 | 56 nM and 29 nM | –
Cl.O=C(Cc1ccc(Cl)c(Cl)c1)N1CCNC[C@@H]1CN1CCCC1 [(R-2), (R)-1-[(3,4-Dichlorophenyl)acetyl]-2-[(1-pyrrolidinyl)methyl]piperazine hydrochloride] | 1.5 nM and 1.3 nM | 57% @ 300 | 14 nM and 17 nM | –
CN(C(=O)C(c1ccccc1)c1ccccc1)C1CCCCC1N1CCCC1 (racemic) [Example 5s, (±)-trans-N-Methyl-N-[2-(1-pyrrolidinyl)cyclohexyl]2,2-dphenylacetamide Hydrochloride] | – | – | – | Ki ([1]; Ki(nM) diprenorphine): 1170 nM; Ki ([2]; Ki(nM) U-69593): 330 nM
CCOP(=O)(Nc1ccc2c(c1)[C@H](N(C)C(=O)Cc1ccc(Cl)c(Cl)c1)[C@@H](N1CCCC1)CC2)OCC (racemic) [II-14] | – | – | – | Ki ([1]; Ki (nM) k [3H] Diprenorphin): 2.4 nM; Ki ([2]; Ki (nM) k (mg) [3H]U69,593): 0.6 nM
COc1ccc2c(c1)[C@H](N(C)C(=O)C(c1ccccc1)c1ccccc1)[C@@H](N1CCCC1)CC2 (racemic) [II-2] | – | – | – | Ki ([1]; Ki (nM) k [3H] Diprenorphin): 142 nM; Ki ([2]; Ki (nM) k (mg) [3H]U69,593): 20 nM
CN(C(=O)Cc1ccc(Cl)c(Cl)c1)[C@H]1c2cc(N(CC(=O)O)CC(=O)O)ccc2CC[C@@H]1N1CCCC1 (racemic) [II-12] | – | – | – | Ki ([1]; Ki (nM) k [3H] Diprenorphin): 3.8 nM; Ki ([2]; Ki (nM) k (mg) [3H]U69,593): 0.68 nM
CCOP(=O)(OCC)N1CCN(C(=O)Cc2ccc(Cl)c(Cl)c2)[C@H](CN2CCCC2)C1 [(R-3g), (R)-4-(Diethoxyphosphonate)-1-[(3,4-dichlorophenyl)acetyl]-2-[(1-pyrolidinyl)methyl]-piperazine hydrochloride] | 1.3 nM and 1.4 nM | 54% @ 300 | 99 nM and 33 nM | –
CS(=O)(=O)N1CCN(C(=O)Cc2c[nH]c3ccccc23)C(CN2CCCC2)C1 (racemic) [(R,S-8e), (R,S)-4-Methanesulfonyl-1-[(3-indolylacetyl-2-[(1-pyrrolidinyl)-methyl]piperazine hydrochloride] | 5.3 nM and 3.2 nM | – | – | inhibition at 1 µM [1]: 74%
CC(=O)N1CCN(C(=O)Cc2ccc([N+](=O)[O-])cc2)C(CN2CCCC2)C1 (racemic) [(R,S-10f), hydrochloride] | 2.4 nM | – | – | inhibition at 1 µM [1]: 59%
CN(C(=O)C(c1ccccc1)c1ccccc1)[C@H]1c2ccccc2C[C@@H]1N1CCCC1 (racemic) [II-20] | – | – | – | k [3H] Diprenorphin, % [1]: 29% @ 1 mM; Ki [2]: 146 nM
CCOC(=O)CN(CC(=O)OCC)c1ccc2c(c1)[C@H](N(C)C(=O)Cc1ccc(Cl)c(Cl)c1)[C@@H](N1CCCC1)CC2 (racemic) [II-10] | – | – | – | Ki ([1]; Ki (nM) k [3H] Diprenorphin): 4.6 nM; Ki ([2]; Ki (nM) k (mg) [3H]U69,593): 0.68 nM; Late Phase Formalin, % A @ 300 [3]: 37% A @ 300
CS(=O)(=O)N1CCN(C(=O)Cc2ccccc2[N+](=O)[O-])[C@H](CN2CCCC2)C1.Cl (racemic) [(R,S-8c), (R,S)-4-Methanesulfonyl-1-[(2-nitrophenyl)acetyl]-2-[(1-pyrrolidinyl)-methyl]piperazine hydrochloride] | – | – | – | 3H-Diprenorphin, % @ 1 uM [1]: 15% @ 1 uM; 3H-U-69,593, % @ 1 uM [2]: 51% @ 1 uM
